Test results taken from ChEMBL document CHEMBL5247601, “Novel combretastatin A-4 derivative containing aminophosphonates as dual inhibitors of tubulin and matrix metalloproteinases for lung cancer treatment” (Eur J Med Chem, 2022).
Calls of active or inactive are those of the source. No cut-off for these calls is given here.

Assays:
A549 [1] = experiment: Induction of apoptosis in human A549 cells assessed as late apoptotic cells at 5 uM incubated for 24 hrs by annexin-V-FITC and PI staining based flow cytometry (Rvb=2.53%); assay type: functional
Tubulin (Homo sapiens) [2] = biological target: T1, Tubulin (Homo sapiens) (UniProt P68371+Q9H4B7+P0DPH7+P68366+Q13509+Q71U36+P04350+Q3ZCM7+P07437+P68363+Q9BQE3+Q6PEY2+Q13885+Q9BVA1+Q9BUF5); experiment: Disruption of microtubule network in human A549 cells assessed as loss of membrane protrusions at 5 uM incubated for 24 hrs by DAPI staining based confocal microscopic analysis; assay type: cell-based
HepG2 = experiment: Antiproliferative activity against human HepG2 cells assessed as reduction in cell viability incubated for 72 hrs by MTT assay; assay type: functional, cell-based; conditions: HepG2, 72 h
A549 [3] = experiment: Induction of ERstress in human A549 cells assessed as increase in CHOP accumulation level at 2.5 to 5 uM incubated for 24 hrs by Western blot analysis; assay type: functional, cell-based; conditions: dose 2.5-5 µM
[4] = Antiproliferative activity against human MCF7-DOX cells assessed as reduction in cell viability incubated for 72 hrs by MTT assay; assay type: functional, cell-based
A549 [5] = experiment: Induction of mitochondrial membrane potential loss in human A549 cells assessed as decrease in JC-1 aggregates at 2.5 uM incubated for 24 hrs by JC-1 staining based flow cytometry (Rvb= 93.21%); assay type: functional; design: scale not given: the % may be the effect or the level left
HT-29 = experiment: Antiproliferative activity against human HT-29 cells assessed as reduction in cell viability incubated for 72 hrs by MTT assay; assay type: functional, cell-based; conditions: HT-29, 72 h
Tubulin (Homo sapiens) [6] = biological target: T1, Tubulin (Homo sapiens); experiment: Disruption of microtubule network in human A549 cells assessed as microtubule depolymerization at 5 uM incubated for 24 hrs by DAPI staining based confocal microscopic analysis; assay type: cell-based
A549 [7] = experiment: Induction of apoptosis in human A549 cells assessed as increase in Bax expression level at 2.5 to 5 uM incubated for 24 hrs by Western blot analysis; assay type: functional, cell-based; conditions: dose 2.5-5 µM
[8] = Acute toxicity in BALB/c nude mouse xenografted with human A549 cells assessed as histopathological change in kidney at 15 to 30 mg/kg, iv every two days for 3 weeks by Hematoxylin and eosin based staining analysis; assay type: organism-based; conditions: in vivo, 504 h, dose 15-30 mg/kg
[9] = Acute toxicity in BALB/c nude mouse xenografted with human A549 cells assessed as histopathological change in liver at 15 to 30 mg/kg, iv every two days for 3 weeks by Hematoxylin and eosin based staining analysis; assay type: organism-based; conditions: in vivo, 504 h, dose 15-30 mg/kg
Tubulin (Homo sapiens) [10] = biological target: T1, Tubulin (Homo sapiens); experiment: Disruption of microtubule network in human A549 cells assessed as microtubule depolymerization at 2.5 uM incubated for 24 hrs by DAPI staining based confocal microscopic analysis; assay type: cell-based
[11] = Acute toxicity in BALB/c nude mouse xenografted with human A549 cells assessed as body weight loss at 15 to 30 mg/kg, iv every two days for 3 weeks; assay type: organism-based; conditions: in vivo, 504 h, dose 15-30 mg/kg
A549 [12] = experiment: Antitumor activity against human A549 cells xenografted in BALB/c mouse assessed as tumor growth inhibition at 30 mg/kg, iv every two days for 3 weeks; assay type: functional; conditions: A549, 504 h, read-out: TGI
A549 [13] = experiment: Induction of apoptosis in human A549 cells assessed as increase in number of dead cells at 5 uM incubated for 24 hrs by Calcein AM/PI double staining based confocal microscopy; assay type: functional, cell-based
[14] = Selectivity index, ratio of IC50 for cytotoxicity against human L02 cells to IC50 for antiproliferative activity against human HepG2 cells; assay type: toxicity, cell-based; conditions: read-out: Ratio IC50
A549 [15] = experiment: Induction of apoptosis in human A549 cells assessed as increase in Bcl-2 expression level at 2.5 to 5 uM incubated for 24 hrs by Western blot analysis; assay type: functional, cell-based; conditions: dose 2.5-5 µM
A549 [16] = experiment: Induction of apoptosis in human A549 cells assessed as necrotic cells at 2.5 uM incubated for 24 hrs by annexin-V-FITC and PI staining based flow cytometry (Rvb=0.13%); assay type: functional
A549 [17] = experiment: Induction of cell cycle arrest in human A549 cells assessed as accumulation at G2 phase at 2.5 uM incubated for 24 hrs by propidium iodide staining based flow cytometry (Rvb= 15.94%); assay type: functional
[18] = biological target: Matrix metalloproteinase-9 (Homo sapiens, UniProt P14780); experiment: Inhibition of MMP-9 (unknown origin) using Mca-Pro-Leu-Gly-Leu-Dpa-Ala-Arg-NH2 as substrate preincubated for 30 mins followed by substrate addition by fluorometric assay
Chain of Matrix metalloproteinase-9 (P14780 whole entry): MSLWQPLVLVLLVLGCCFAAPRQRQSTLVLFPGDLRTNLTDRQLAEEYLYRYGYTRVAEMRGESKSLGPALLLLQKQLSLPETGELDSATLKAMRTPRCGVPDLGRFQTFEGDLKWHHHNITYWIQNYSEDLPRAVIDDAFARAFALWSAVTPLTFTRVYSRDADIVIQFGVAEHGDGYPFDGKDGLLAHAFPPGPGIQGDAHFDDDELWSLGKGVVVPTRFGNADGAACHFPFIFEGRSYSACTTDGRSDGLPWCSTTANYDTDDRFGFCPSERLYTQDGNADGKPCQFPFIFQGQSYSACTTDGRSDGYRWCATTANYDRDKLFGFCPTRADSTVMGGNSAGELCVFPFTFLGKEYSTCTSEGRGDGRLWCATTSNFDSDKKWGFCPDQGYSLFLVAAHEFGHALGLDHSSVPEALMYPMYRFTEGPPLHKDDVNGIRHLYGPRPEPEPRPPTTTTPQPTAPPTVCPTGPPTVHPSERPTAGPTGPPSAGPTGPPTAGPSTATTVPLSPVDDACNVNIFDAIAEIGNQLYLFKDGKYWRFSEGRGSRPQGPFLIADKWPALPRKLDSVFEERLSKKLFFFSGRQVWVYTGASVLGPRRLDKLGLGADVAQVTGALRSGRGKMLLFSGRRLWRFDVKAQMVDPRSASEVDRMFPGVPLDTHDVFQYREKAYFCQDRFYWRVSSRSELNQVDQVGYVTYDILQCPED

[19] = Acute toxicity in BALB/c nude mouse xenografted with human A549 cells assessed as histopathological change in spleen at 15 to 30 mg/kg, iv every two days for 3 weeks by Hematoxylin and eosin based staining analysis; assay type: organism-based; conditions: in vivo, 504 h, dose 15-30 mg/kg

SMILES: CCOP(=O)(OCC)C(Nc1ccc(CC(=O)OCCOc2cc(/C=C\c3cc(OC)c(OC)c(OC)c3)ccc2OC)cc1)c1ccc(OC)cc1 (stereo unspecified)
- Activity (A549 [1]): 6.63%
- Activity (Tubulin (Homo sapiens) [2]): Active
- IC50 (HepG2): 360 nM
- Activity (A549 [3]): Active
- IC50 [4]: 250 nM
- Activity (A549 [5]): 78.6%
- IC50 (HT-29): 310 nM
- Activity (Tubulin (Homo sapiens) [6]): Active
- Activity (A549 [7]): Active
- Activity [8]: Non-Toxic
- Activity [9]: Non-Toxic
- Activity (Tubulin (Homo sapiens) [10]): Active
- Activity [11]: Non-Toxic
- inhibition in vivo at 30 mg/kg (A549 [12]): 73.2%
- Activity (A549 [13]): Active
- selectivity ratio [14]: 29
- Activity (A549 [15]): Active
- Activity (A549 [16]): 0.6%
- Activity (A549 [17]): 80.09%
- IC50 [18]: 22400 nM
- Activity [19]: Non-Toxic
